This note sets out measurements from patent publication US10053422B2, “Compounds for the treatment of mTOR pathway related diseases” (Pitney Pharmaceuticals Pty Limited, priority 2012, dated 2018).

SMILES strings stand for the structures. “Also recorded” adds a separate entry of the source. Read-outs that look alike come from different tables or passages of the source.

The test system of one series is IGROV-1 cells. The series is described as follows: SRB cell proliferation assay, IGROV-1. As to conditions: Homo sapiens. It counts as cell-based. The procedure:
(§1) Cell proliferation was assessed using the sulforhodamine B (SRB) assay. Cells seeded in 96-well plate (2,000-3,000 cell/well) were treated with MPL (0, 1, 5, 10, 25, 50 and 100 μmol/L) for 72 h. Cells were then fixed, washed and stained with 100 μl of 0.4% (w/v) SRB dissolved in 1% acetic acid. Unbound dye was removed by five washes with 1% acetic acid before air drying. Bound SRB was solubilized with 100 μl of 10 mM Tris base (pH 10.5) and the absorbance read at 570 nm. Exactly the same procedure was used to assess MPL-SO2. Both agents were dissolved in ethanol and diluted with media to give the final concentrations required for cell culture assays.

In another series the test system is MDA-MB-231 cells. The series is described as follows: SRB cell proliferation assay, MDA-MB-231. The series is classed as cell-based. Particulars: Homo sapiens. The procedure: as §1
The test system of series [1] is HUVEC (human umbilical vein endothelial cells). The series can be described thus: SRB cell proliferation assay, HUVEC. It counts as cell-based. How it is done:
as §1

A further series concerns 3T3 fibroblast. The series is described as follows: SRB cell proliferation assay, 3T3. The series is classed as cell-based. As to conditions: 3T3, fibroblast (Table 2); read-out: IC50 in suppressing proliferation. The procedure:
as §1

The test system of series [2] is OVCAR-3 or A2780 cells. The series is described as follows: Colony formation assay. It counts as cell-based, human. The procedure:
FIG. 2A, FIG. 2B, and FIG. 2C show the effect of MPL on the colony formation activity of OVCAR-3 cells. Following incubation of cells with MPL (0, 5, 10 and 25 μmol/L) for 72 hours, cells were washed, transferred to agar plates, cultured with their regular growth medium and incubated under standard conditions for 2 weeks. Cells were then fixed with 100% methanol and stained with 1% crystal violet. Colonies (a cluster of cells greater than 50) were counted under a microscope (magnification ×5). The number of colonies counted for different experimental groups is expressed as a percentage of the control.
Following incubation of cells with MPL (0, 5, 10, 25 μM) for 72 h, cells were washed and then transferred to agar plates, cultured with their regular growth medium and incubated under standard conditions for 2 weeks. Cells were then fixed with 100% methanol and stained with 1% crystal violet. Colonies (cluster of cells greater than 50) were counted under microscope (magnification ×5). Number of colonies counted for different experimental groups is expressed as % of control.
For colony formation assay, […], such as OVCAR-3 or A2780 cells, were plated in 100 mm Petri dishes and allowed to attach overnight. […] Colonies consisting of more than 50 cells were counted under an inverted microscope. […]

Series [3] relates to OVCAR-3 or A2780 cells. The series is described as follows: Cellular ATP and ADP/ATP ratio. It counts as cell-based, human. How it is done:
ADP and ATP levels in the media were measured using the commercial colorimetric/fluorometric assay kits from Abcam together with the ApoGlow assay kit from Lonza (Sydney, Australia subsidary). Each value represents mean+s.e.m. of at least two determinations.

The test system of series [4] is A2780 ovarian cancer cells. The series can be described thus: Autophagy (vacuole formation), A2780. The series is classed as cell-based, human. The text has this:
Autophagy is a characteristic of mTOR inhibition.

In a further series the test system is mTOR and p70S6K. The series is described as follows: Western blot of mTOR and p70S6K phosphorylation in OVCAR-3 cells. It counts as cell-based, human. Particulars: 10 μM MPL for 1, 4 or 24 hours. How it is done:
Western blot analysis of cell lysates prepared from OVCAR-3 cells treated with 10 μM MPL for 1, 4 or 24 hours under cell culture conditions.

For series [5], the system named is Normal cells HOSE, CHO, HEK and HUVEC. The series can be described thus: Cell viability assay (Trypan blue), normal cells. It counts as cell-based. As to conditions: MPL 0, 5, 10, 25 μmol/L, 72 h. How it is done: Normal cells HOSE, CHO, HEK and HUVEC were cultured in the presence of MPL (0, 5, 10, 25, μmol/L) for 72 h. Effect of MPL on cell viability was assessed using the standard Trypan blue assay. Results are presented as mean±SEM compared to control (100%).
For viability experiments, cells seeded in 6 well plates were exposed to monepantel (MPL) at 0, 1, 10, 50 and 100 μM concentrations for 24, 48 or 72 h. Monepantel (gift by Novartis, Basel, Switzerland) was dissolved in 100% ethanol and then diluted with the cell culture media. At the end of treatment period, cells were washed with PBS, trypsinized and counted using Trypan blue and hemocytometer. All experimental points were set up in quadruplicate and each experiment was performed at least twice.
In brief, MPL and MPL-SO2 were tested in vitro against a wide range of cancer cell-lines with extensively different disease characteristics. For further detailed studies, human ovarian cancer cell lines OVCAR-3 and A2780 were chosen. […] Cell viability was assessed using Trypan blue assay (FIG. 9). Similarly, effect of MPL on the growth of normal epithelial, endothelial, embryonic and fetal cells were investigated (FIG. 10) while cell proliferation was assessed using the SRB assay (FIG. 11). Control (vehicle treated) cells were taken to present 100% proliferation and the MPL treated groups are expressed as percentage of control±SEM. […]

`C[C@](C#N)(COc1cc(C#N)ccc1C(F)(F)F)NC(=O)c1ccc(SC(F)(F)F)cc1` [MPL, N-[(1S)-1-Cyano-2-(5-cyano-2-trifluoromethyl-phenoxy)-1-methyl-ethyl]-4-trifluoromethylsulfanyl-benzamide]: the IC50 came out at 4.4 ± 0.27 µM in the series on IGROV-1 cells (IGROV-1, ovarian cancer (Table 2), read-out: IC50 in suppressing proliferation); 6.1 µM in the series with IGROV-1 cells (IGROV-1, ovarian cancer, 72 h, SRB assay (Table 1), read-out: IC50); 23.8 ± 0.2 µM in the series with MDA-MB-231 cells (MDA-MB-231, breast cancer (Table 2), read-out: IC50 in suppressing proliferation); 24 µM with MDA-MB-231 cells (MDA-MB-231, breast cancer, 72 h, SRB assay (Table 1), read-out: IC50); 65 µM in series [1] (HUVEC = human umbilical vein endothelial cells (Table 3), read-out: IC50 μM HUVEC); 87 µM in [1] (Homo sapiens, HUVEC (Table 2), read-out: IC50 in suppressing proliferation). The IC50 amounted to 87.8 µM in series [1] (Homo sapiens, HUVEC, 72 h, SRB assay (Table 1), read-out: IC50) and 12.4 ± 0.37 µM in the series on 3T3 fibroblast. The colony formation entry in the series on OVCAR-3 or A2780 cells [2] (72 h exposure (0, 5, 10, 25 μM), then 2 weeks drug free) is given as “profoundly hinders colony formation; also recorded: concentration-dependent inhibition of colony formation”. The “clonogenic ability at higher concentrations” value in the series on OVCAR-3 or A2780 cells [2] (higher concentrations of MPL, 72 h exposure) was “almost complete loss of clonogenic ability”. In addition, the “cellular ATP levels” value in the series on OVCAR-3 or A2780 cells [3] is recorded as “reduction in ATP levels”. In addition, the “formation of vacuoles (autophagy)” value in series [4] is recorded as “formation of vacuoles”. Also, the “phosphorylation [activation] of mTOR and p70S6K” value in the series on mTOR and p70S6K is “inhibition of phosphorylation”. Moreover, the “viability of normal cells” value in series [5] is “cancer cell orientated”.
